The experiment has as its target T1, Human GLP-1 receptor (Homo sapiens, UniProt P43220).
T1 construct: expressed in transfected cells
Briefly: Measurement of GLP-1 receptor agonist activity (cAMP assay). The class given is cell-based. Particulars: cAMP increase in GLP-1 R/CHO-K1 cells, 2 nM human GLP-1 (7-36) = 100%, DMSO only = 0%; for Emax: CHO-K1, maximum effect, read-out: Emax. The essentials:
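hGLP-1R/CHO-K1 cells in HBSS with 0.1% BSA, 20 mM HEPES, 0.1 mM IBMX and 0.2 mM RO20-1724 exposed to compound plus forskolin (400 μM stock) for 1 h at 37 °C. Intracellular cAMP read by HTRF (cAMP-d2/anti-cAMP cryptate, 1 h at room temperature).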
(Changes in cAMP serve as a functional read-out for many G protein-coupled receptors.)

T1 sequence (P43220 24-463): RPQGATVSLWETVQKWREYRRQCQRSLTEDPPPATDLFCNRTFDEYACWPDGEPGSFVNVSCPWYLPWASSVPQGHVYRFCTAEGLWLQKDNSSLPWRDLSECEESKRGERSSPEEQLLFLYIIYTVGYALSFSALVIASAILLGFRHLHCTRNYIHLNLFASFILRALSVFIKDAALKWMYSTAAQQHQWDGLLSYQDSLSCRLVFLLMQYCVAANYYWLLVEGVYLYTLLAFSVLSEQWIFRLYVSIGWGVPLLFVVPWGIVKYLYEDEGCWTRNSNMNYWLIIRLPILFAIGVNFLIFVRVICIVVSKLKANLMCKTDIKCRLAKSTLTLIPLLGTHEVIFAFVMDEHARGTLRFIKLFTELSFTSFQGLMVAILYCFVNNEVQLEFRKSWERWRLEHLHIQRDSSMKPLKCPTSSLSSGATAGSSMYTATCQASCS

With `C[C@H]1c2nc(OCc3ccc(Cl)cc3Cl)c(C(F)(F)F)cc2CCN1Cc1nc2ccc(C(=O)O)c(F)c2n1C[C@@H]1CCO1` [Compound I-243], the Emax is 111% and the EC50 is 55.6 pM.

For `C[C@H]1c2nc(OCc3ccc(Cl)cc3Cl)c(C(F)(F)F)cc2CCN1Cc1nc2c(F)cc(C(=O)O)cc2n1C[C@@H]1CCO1` [Compound I-244], the Emax was 123% and the EC50 came to 39.4 pM.

Turning to `C[C@H]1c2nc(OCc3cc(F)c(Cl)cc3F)c(C(F)(F)F)cc2CCN1Cc1nc2ccc(C(=O)O)c(F)c2n1C[C@@H]1CCO1` [Compound I-245], the Emax worked out at 109% and the EC50 was 60.5 pM.

For `C[C@H]1c2nc(OCc3cc(F)c(Cl)cc3F)c(C(F)(F)F)cc2CCN1Cc1nc2c(F)cc(C(=O)O)cc2n1C[C@@H]1CCO1` [Compound I-246], the Emax was 120% and the EC50 worked out at 26.4 pM.

Turning to `C[C@H]1c2nc(OCc3ccc(Cl)cn3)c(C(F)(F)F)cc2CCN1Cc1nc2ccc(C(=O)O)cc2n1C[C@@H]1CCO1` [Compound I-247], the Emax was 121% and the EC50 was determined as 351 pM.

As to `Cc1csc(COc2nc3c(cc2C(F)(F)F)CCN(Cc2nc4ccc(C(=O)O)cc4n2C[C@@H]2CCO2)[C@H]3C)n1` [Compound I-248], the Emax turned out to be 124% and a half-maximal response (EC50) required 902 pM.

With `C[C@H]1c2nc(OCc3ccc(Cl)cc3)c(C(F)(F)F)cc2CCN1Cc1nc2ccc(C(=O)O)cc2n1C[C@@H]1CCO1` [Compound I-249], the Emax is 145% and the EC50 was determined as 130 pM.

As to `Cc1ccc(COc2nc3c(cc2C(F)(F)F)CCN(Cc2nc4ccc(C(=O)O)cc4n2C[C@@H]2CCO2)[C@H]3C)cc1` [Compound I-250], the Emax was determined as 121% and a half-maximal response (EC50) required 164 pM.

`C[C@H]1c2nc(OCc3ccc(C4CC4)cc3)c(C(F)(F)F)cc2CCN1Cc1nc2ccc(C(=O)O)cc2n1C[C@@H]1CCO1` [Compound I-251]: the Emax worked out at 120% and the response was half-maximal at 807 pM (EC50).

`COc1cc(Cl)ccc1COc1nc2c(cc1C(F)(F)F)CCN(Cc1nc3ccc(C(=O)O)cc3n1C[C@@H]1CCO1)[C@H]2C` [Compound I-252]: the Emax was determined as 125% and the EC50 stood at 79.8 pM.

In the case of `C[C@H]1c2nc(OCc3ccccc3Cl)c(C(F)(F)F)cc2CCN1Cc1nc2ccc(C(=O)O)cc2n1C[C@@H]1CCO1` [Compound I-253], the Emax is 119% and the EC50 came to 366 pM.

Regarding `C[C@H]1c2nc(OCc3ccc(F)cc3F)c(C(F)(F)F)cc2CCN1Cc1nc2ccc(C(=O)O)cc2n1C[C@@H]1CCO1` [Compound I-254], the Emax was found to be 126% and the response was half-maximal at 177 pM (EC50).

`C[C@H]1c2nc(OCc3ccc(Cl)cc3Cl)c(C(F)(F)F)cc2CCN1Cc1nc2ccc(C(=O)O)cc2n1C[C@@H]1CCO1` [Compound I-255]: the Emax was found to be 122% and the EC50 came out at 102 pM.

As for `C[C@H]1c2nc(OCc3ccc(OC(F)F)cc3F)c(C(F)(F)F)cc2CCN1Cc1nc2ccc(C(=O)O)cc2n1C[C@@H]1CCO1` [Compound I-256], the Emax came out at 119% and a half-maximal effect (EC50) was put at 389 pM.

Consider `C[C@H]1c2nc(OCc3cc(F)c(Cl)cc3F)c(C(F)(F)F)cc2CCN1Cc1nc2ccc(C(=O)O)cc2n1C[C@@H]1CCO1` [Compound I-257], for which the Emax worked out at 115% and a half-maximal effect (EC50) was put at 74.7 pM.

Regarding `C[C@H]1c2nc(OCc3ccc(C#N)cc3F)c(C(F)(F)F)cc2CCN1Cc1nc2ccc(C(=O)O)cc2n1C[C@@H]1CCO1` [Compound I-258], the Emax was 107% and the EC50 is 91.1 pM.

As to `C[C@H]1c2nc(OCc3c(F)cc(Cl)cc3F)c(C(F)(F)F)cc2CCN1Cc1nc2ccc(C(=O)O)cc2n1C[C@@H]1CCO1` [Compound I-259], the Emax was 134% and the EC50 stood at 104 pM.

For the compound `C[C@H]1c2nc(OCc3c(F)cc(F)cc3F)c(C(F)(F)F)cc2CCN1Cc1nc2ccc(C(=O)O)cc2n1C[C@@H]1CCO1` [Compound I-260], the Emax came to 115% and it took 128 pM to reach a half-maximal effect (EC50).

Turning to `C[C@H]1c2cc(OCc3ccc(Cl)cc3F)c(C(F)F)cc2CCN1Cc1nc2ccc(C(=O)O)cc2n1C[C@@H]1CCO1` [Compound I-261], the Emax was 105% and the EC50 came out at 1270 pM.

With `COc1ccc(COc2nc3c(cc2C(F)(F)F)CCN(Cc2nc4ccc(C(=O)O)cc4n2C[C@@H]2CCO2)C3)cc1` [Compound I-262], the Emax was found to be 109% and the EC50 was 4470 pM.

As to `O=C(O)c1ccc2nc(CN3CCc4cc(C(F)(F)F)c(OCc5ccc(Cl)cn5)nc4C3)n(C[C@@H]3CCO3)c2c1` [Compound I-263], the Emax was 105% and it took 8800 pM to reach a half-maximal effect (EC50).

`O=C(O)c1ccc2nc(CN3CCc4cc(C(F)(F)F)c(OCc5ccc(Cl)cc5)nc4C3)n(C[C@@H]3CCO3)c2c1` [Compound I-264]: the Emax stood at 121% and a half-maximal effect (EC50) was put at 2360 pM.

As to `Cc1ccc(COc2nc3c(cc2C(F)(F)F)CCN(Cc2nc4ccc(C(=O)O)cc4n2C[C@@H]2CCO2)C3)cc1` [Compound I-265], the Emax was 100% and the EC50 was determined as 3180 pM.

Take `O=C(O)c1ccc2nc(CN3CCc4cc(C(F)(F)F)c(OCc5ccc(C6CC6)cc5)nc4C3)n(C[C@@H]3CCO3)c2c1` [Compound I-266]: the Emax worked out at 111% and the EC50 turned out to be 4040 pM.

Consider `COc1cc(Cl)ccc1COc1nc2c(cc1C(F)(F)F)CCN(Cc1nc3ccc(C(=O)O)cc3n1C[C@@H]1CCO1)C2` [Compound I-267], for which the Emax worked out at 112% and the EC50 worked out at 861 pM.

`O=C(O)c1ccc2nc(CN3CCc4cc(C(F)(F)F)c(OCc5ccc(F)cc5F)nc4C3)n(C[C@@H]3CCO3)c2c1` [Compound I-268]: the Emax stood at 108% and the midpoint of the response, the EC50, lay at 1970 pM.

In the case of `O=C(O)c1ccc2nc(CN3CCc4cc(C(F)(F)F)c(OCc5ccc(Cl)cc5Cl)nc4C3)n(C[C@@H]3CCO3)c2c1` [Compound I-269], the maximal effect (Emax) was found to be 109% and a half-maximal effect (EC50) was put at 1160 pM.

On to `O=C(O)c1ccc2nc(CN3CCc4cc(C(F)(F)F)c(OCc5ccc(OC(F)F)cc5F)nc4C3)n(C[C@@H]3CCO3)c2c1` [Compound I-270], for which the Emax was determined as 116% and the response was half-maximal at 690 pM (EC50).

For `N#Cc1ccc(COc2nc3c(cc2C(F)(F)F)CCN(Cc2nc4ccc(C(=O)O)cc4n2C[C@@H]2CCO2)C3)c(F)c1` [Compound I-271], the Emax is 118% and the EC50 worked out at 1660 pM.

As to `O=C(O)c1ccc2nc(CN3CCc4cc(C(F)(F)F)c(OCc5ccc(F)cc5)nc4C3)n(C[C@@H]3CCO3)c2c1` [Compound I-272], the Emax was 107% and the EC50 worked out at 3940 pM.

As for `C[C@H]1c2nc(OCc3ccc(Cl)cc3F)c(C(F)(F)F)cc2CCN1Cc1nc2c(F)cc(C(=O)O)cc2n1C[C@@H]1CCO1` [Compound I-273], the Emax is 121% and the EC50 worked out at 30.1 pM.

On to `COc1cc(C(=O)O)cc2c1nc(CN1CCc3cc(C(F)(F)F)c(OCc4ccc(Cl)cc4F)nc3[C@@H]1C)n2C[C@@H]1CCO1` [Compound I-274], for which the Emax was found to be 120% and the EC50 came out at 13.4 pM.

For `C[C@H]1c2nc(OCc3ccc(Cl)cc3F)c(C(F)(F)F)cc2CCN1Cc1nc2ccc(C(=O)O)nc2n1C[C@@H]1CCO1` [Compound I-275], the Emax was determined as 107% and a half-maximal response (EC50) required 246 pM.

`C[C@H]1c2nc(OCc3ccc(Cl)cc3F)c(Cl)cc2CCN1Cc1nc2ccc(C(=O)O)cc2n1C[C@@H]1CCO1` [Compound I-276]: the Emax was found to be 114% and the EC50 amounted to 52.1 pM.

As to `O=C(O)c1ccc2nc(CN3CCc4cc(C(F)(F)F)c(OCc5ccccc5Cl)nc4C3)n(C[C@@H]3CCO3)c2c1` [Compound I-277], the Emax amounted to 96.3% and the EC50 amounted to 3200 pM.

In the case of `O=C(O)c1ccc2nc(CN3CCc4cc(C(F)(F)F)c(OCc5cc(F)c(Cl)cc5F)nc4C3)n(C[C@@H]3CCO3)c2c1` [Compound I-278], the Emax worked out at 109% and the EC50 came to 806 pM.

In the case of `O=C(O)c1ccc2nc(CN3CCc4cc(C(F)(F)F)c(OCc5c(F)cc(Cl)cc5F)nc4C3)n(C[C@@H]3CCO3)c2c1` [Compound I-279], the Emax is 110%.

As to `O=C(O)c1ccc2nc(CN3CCc4cc(C(F)(F)F)c(OCc5c(F)cc(F)cc5F)nc4C3)n(C[C@@H]3CCO3)c2c1` [Compound I-280], the Emax was 105% and the EC50 turned out to be 790 pM.

In the case of `COc1cc(C(=O)O)cc2c1nc(CN1CCc3cc(C(F)(F)F)c(OCc4ccccc4Cl)nc3[C@@H]1C)n2C[C@@H]1CCO1` [Compound I-281], the Emax is 120% and the EC50 was 7.39 pM.

On to `COc1cc(C(=O)O)cc2c1nc(CN1CCc3cc(C(F)(F)F)c(OCc4ccc(F)cc4F)nc3[C@@H]1C)n2C[C@@H]1CCO1` [Compound I-282], for which the Emax was found to be 114% and the EC50 is 9.18 pM.

Turning to `COc1cc(C(=O)O)cc2c1nc(CN1CCc3cc(C(F)(F)F)c(OCc4ccc(OC(F)F)cc4F)nc3[C@@H]1C)n2C[C@@H]1CCO1` [Compound I-283], the Emax was found to be 118% and the EC50 was 28.3 pM.

As to `COc1cc(C(=O)O)cc2c1nc(CN1CCc3cc(C(F)(F)F)c(OCc4ccc(F)cc4)nc3[C@@H]1C)n2C[C@@H]1CCO1` [Compound I-284], the Emax came out at 119% and a half-maximal effect (EC50) was put at 16 pM.

As to `COc1cc(C(=O)O)cc2c1nc(CN1CCc3cc(C(F)(F)F)c(OCc4c(F)cc(F)cc4F)nc3[C@@H]1C)n2C[C@@H]1CCO1` [Compound I-285], the Emax was found to be 130% and a half-maximal effect (EC50) was put at 8.62 pM.

`COc1ccc(COc2nc3c(cc2C(F)(F)F)CCN(Cc2nc4ccc(C(=O)O)nc4n2C[C@@H]2CCO2)[C@H]3C)cc1` [Compound I-286]: the Emax is 115% and the EC50 is 444 pM.

As a reminder, the Emax is the greatest response seen or fitted, relative to the assay's reference. What is called EC50 is the concentration that produces a half-maximal response. Low values mean higher potency in that assay, high ones lower potency in that assay.
